Test results taken from patent EP4000613A1, “PHARMACEUTICAL COMBINATIONS COMPRISING A PEPTIDE CXCR4 INHIBITOR AND A TAXANE FOR TREATING CANCER” (Polyphor AG, priority 2020, dated 2022).

What was measured:
[1] = test system: breast cancer PDX Ma15169; experiment: Tumor growth of breast cancer PDX Ma15169 in humanized NOG-EXL mice; assay type: in vivo; details: for rating according to RECIST criteria: based on T/C at last day of the study (day 183); for T/C value: last day of the study (day 183), tumor volume treated-to-control
Procedure: The study was designed to determine the response of the breast cancer PDX Ma15169 to treatment with Paclitaxel single agent, Balixafortide single agent and the combination of both in humanized NOG-EXL mice. Humanized NOG-EXL mice bearing the breast cancer PDX Ma15169 were treated with Paclitaxel and Balixafortide according to Table 1. Ma15169 is a patient derived xenograft (PDX) that was from a patient with an invasive ductal carcinoma (ypT1a ypNla R0 G3 L1 V1). The patient tumour was ER/PR as well as Her-2 negative. The tumour material was expanded in 9 donor mice (NOG, Taconic; https://www.taconic.com/mouse-model/ciea-nog-mouse) and fragments of about 10mm3 were each implanted subcutaneously into the flank of 50 humanized NOG-EXL mice; at this time, the passage number of Ma15169 was #4. Table 1: Course of events during the study
Female NOG-EXL mice with an age of about 4 weeks were used for the constitution of human immune cells. 24 hours before CD34+ cell inoculation mice were irradiated with 1Gy. Human CD34+ cells were isolated from fresh cord blood within the laboratories of EPO (Experimental Pharmacology & Oncology Berlin-Buch GmbH, Berlin-Buch, Germany) and preserved in liquid nitrogen until use. For the study MV16883 a pool of 5 different donors (CB AG 101, CB AG 97, CB KR 104, CB AG 106, CB AG 107) prepared. After thawing the cells were washed with PBS, pooled and washed again followed by Trypan blue staining and cell counting using Neubauer chamber. A total of 5x10^4 vital cells were resuspended in 200µl PBS and injected intravenously into the tail vain of all mice.
Determination of human immune cells by FACS was performed at days 46, 84 and 115 after cell inoculation (leucocytes CD45+, B cells CD19+, T cells CD3+, NK cells CD56+/CD16+ and monocytes CD14+; Human Immunophenotyping 8-color-Kit (Miltenyi)). The mice were weighed weekly and monitored for general health two times weekly.
The PDX Ma15169 is maintained by EPO (Experimental Pharmacology & Oncology Berlin-Buch GmbH, Berlin-Buch, Germany) as in vivo passage; the passage number for this study was #4. Donor mice (female NOG; Taconic) with tumors of about 1cm3 were used for the preparation of this study MV16883.
After removal of the tumor tissue from donor mice, the tumors were cut into fragments (2-3 mm diameter - approximately 10mm3) and placed in cooled RPMI 1640 culture medium until s.c. implantation within 30 minutes. The humanized NOG-EXL mice were anaesthetized with Etomidate and received a small incision in the skin of the left flank. The tumor fragments (one fragment/mouse) were implanted with tweezers and the incision closed with a suture clip (#310417, Covetrus GmbH). The clips were removed after seven days and mice controlled two times weekly by means of palpation. The implantation of tumor fragments was performed 122 days after the inoculation of CD34+ cells.
Tumor bearing mice were stratified into 4 treatment groups according to their tumor volumes at day 154 post CD34+ cell inoculation (32 days after tumor implantation). […] During stratification the animals were individually marked by earmarks.
Paclitaxel (Taxomedac™ comprising paclictaxel, citric acid, ethanol and PEG (30-50) castor oil) was given i.v. at a dose of 10 mg/kg twice weekly. Balixafortide was given s.c. at a dose of 20 mg/kg once daily for the first 5 days and twice daily for 5 days followed by treatment breaks of 2 days until the end of treatment period (Fig. 1). Total treatment duration was 29 days. […]

[2] = test system: other potential target receptors; experiment: In vitro receptor binding studies (other receptors)
From the text: (§1) In a particular preferred embodiment the peptidic CXCR4 inhibitor is cyclo(-Tyr-His-Ala-Cys-Ser-Ala-^DPro-Dab-Arg-Tyr-Cys-Tyr-Gln-Lys-^DPro-Pro-) having a disulfide bond between Cys^4 and Cys^11, or pharmaceutically acceptable sals thereof. Cyclo(-Tyr-His-Ala-Cys-Ser-Ala-^DPro-Dab-Arg-Tyr-Cys-Tyr-Gln-Lys-^DPro-Pro-) having a disulfide bond between Cys^4 and Cys^11 is also referred as POL6326 herein or balixafortide. POL6326 is a cyclic synthetic peptide consisting of 16 amino acids and an antagonist of the highly conserved chemokine receptor CXCR4.

human CXCR4 receptor = experiment: In vitro receptor binding studies (CXCR4)
From the text: as §1

C[C@@H]1NC(=O)[C@H](Cc2c[nH]cn2)NC(=O)[C@H](Cc2ccc(O)cc2)NC(=O)[C@@H]2CCCN2C(=O)[C@H]2CCCN2C(=O)[C@H](CCCCN)NC(=O)[C@H](CCC(N)=O)NC(=O)[C@H](Cc2ccc(O)cc2)NC(=O)[C@@H]2CSSC[C@H](NC1=O)C(=O)N[C@@H](CO)C(=O)N[C@@H](C)C(=O)N1CCC[C@@H]1C(=O)N[C@@H](CCN)C(=O)N[C@@H](CCCNC(=N)N)C(=O)N[C@@H](Cc1ccc(O)cc1)C(=O)N2 [Balixafortide, cyclo(-Tyr-His-Ala-Cys-Ser-Ala-^DPro-Dab-Arg-Tyr-Cys-Tyr-Gln-Lys-^DPro-Pro-) having a disulfide bond between Cys^4 and Cys^11]
rating according to RECIST criteria [1]: progressive disease
optimum T/C value ([1]; day 168, Balixafortide 20 mg/kg s.c., p > 0.05): 79%
T/C value ([1]; Balixafortide 20 mg/kg s.c.): 107%
binding to other potential target receptors [2]: general lack of significant binding
affinity for the human CXCR4 receptor (human CXCR4 receptor): significant affinity

CC(=O)O[C@H]1C(=O)[C@@]2(C)[C@H]([C@H](OC(=O)c3ccccc3)[C@]3(O)C[C@H](OC(=O)[C@H](O)[C@@H](NC(=O)c4ccccc4)c4ccccc4)C(C)=C1C3(C)C)[C@]1(OC(C)=O)CO[C@@H]1C[C@@H]2O [Paclitaxel]
rating according to RECIST criteria [1]: stable disease
T/C value ([1]; Paclitaxel 10 mg/kg i.v. twice weekly, Balixafortide 20 mg/kg s.c.): 42%
